Columns and labels:
mutant G2019S LRRK2 = mutant G2019S LRRK2 (Homo sapiens (Human), UniProt Q5S007, G2019S); assay: LRRK2 Lantha Screen kinase assay, mutant enzyme; type: biochemical; conditions: geometric mean of 2-5 determinations unless otherwise indicated (a: >=6 determinations; b: single determination)
AKT1 = AKT1 (Homo sapiens (Human), UniProt P31749); assay: ActivX kinase probe assay (human PBMC); type: binding; conditions: AKT1, read-out: percent inhibition
BTK = BTK (Homo sapiens (Human), UniProt Q06187); assay: ActivX kinase probe assay (human PBMC); type: binding; conditions: BTK, read-out: percent inhibition
CaMK1d = CaMK1d (Homo sapiens (Human), UniProt Q8IU85); assay: ActivX kinase probe assay (human PBMC); type: binding; conditions: CaMK1d, read-out: percent inhibition
CDK5 = CDK5 (Homo sapiens (Human), UniProt Q00535); assay: ActivX kinase probe assay (human PBMC); type: binding; conditions: CDK5, read-out: percent inhibition
eEF2K = eEF2K (Homo sapiens (Human), UniProt O00418); assay: ActivX kinase probe assay (human PBMC); type: binding; conditions: eEF2K, read-out: percent inhibition
FAK = FAK (Homo sapiens (Human), UniProt Q05397); assay: ActivX kinase probe assay (human PBMC); type: binding; conditions: FAK, read-out: percent inhibition
FRAP = FRAP (Homo sapiens (Human), UniProt P42345); assay: ActivX kinase probe assay (human PBMC); type: binding; conditions: FRAP, read-out: percent inhibition
GSK3A = GSK3A (Homo sapiens (Human), UniProt P49840); assay: ActivX kinase probe assay (human PBMC); type: binding; conditions: GSK3A, read-out: percent inhibition
IKKb = IKKb (Homo sapiens (Human), UniProt O14920); assay: ActivX kinase probe assay (human PBMC); type: binding; conditions: IKKb, read-out: percent inhibition
JAK2 domain2 = JAK2 domain2 (Homo sapiens (Human), UniProt O60674); assay: ActivX kinase probe assay (human PBMC); type: binding; conditions: JAK2 domain2, read-out: percent inhibition
LATS2 = LATS2 (Homo sapiens (Human), UniProt Q9NRM7); assay: ActivX kinase probe assay (human PBMC); type: binding; conditions: LATS2, read-out: percent inhibition
LOK = LOK (Homo sapiens (Human), UniProt O94804); assay: ActivX kinase probe assay (human PBMC); type: binding; conditions: LOK, read-out: percent inhibition
LYN = LYN (Homo sapiens (Human), UniProt P07948); assay: ActivX kinase probe assay (human PBMC); type: binding; conditions: LYN, read-out: percent inhibition
MARK3 = MARK3 (Homo sapiens (Human), UniProt P27448); assay: ActivX kinase probe assay (human PBMC); type: binding; conditions: MARK3, read-out: percent inhibition
MSK1 domain1 = MSK1 domain1 (Homo sapiens (Human), UniProt O75582); assay: ActivX kinase probe assay (human PBMC); type: binding; conditions: MSK1 domain1, read-out: percent inhibition
MST4, YSK1 = assay: ActivX kinase probe assay (human PBMC); type: binding
NDR2 = NDR2 (Homo sapiens (Human), UniProt Q9Y2H1); assay: ActivX kinase probe assay (human PBMC); type: binding; conditions: NDR2, read-out: percent inhibition
p38a = p38a (Homo sapiens (Human), UniProt Q16539); assay: ActivX kinase probe assay (human PBMC); type: binding; conditions: p38a, read-out: percent inhibition
p38d, p38g = assay: ActivX kinase probe assay (human PBMC); type: binding
PCTAIRE2, PCTAIRE3 = assay: ActivX kinase probe assay (human PBMC); type: binding
PI4KB = PI4KB (Homo sapiens (Human), UniProt Q9UBF8); assay: ActivX kinase probe assay (human PBMC); type: binding; conditions: PI4KB, read-out: percent inhibition
PIK3C3 = PIK3C3 (Homo sapiens (Human), UniProt Q8NEB9); assay: ActivX kinase probe assay (human PBMC); type: binding; conditions: PIK3C3, read-out: percent inhibition
PIP4K2A = PIP4K2A (Homo sapiens (Human), UniProt P48426); assay: ActivX kinase probe assay (human PBMC); type: binding; conditions: PIP4K2A, read-out: percent inhibition
PKR = PKR (Homo sapiens (Human), UniProt P19525); assay: ActivX kinase probe assay (human PBMC); type: binding; conditions: PKR, read-out: percent inhibition
RIPK3 = RIPK3 (Homo sapiens (Human), UniProt Q9Y572); assay: ActivX kinase probe assay (human PBMC); type: binding; conditions: RIPK3, read-out: percent inhibition
RSK1 domain1 = RSK1 domain1 (Homo sapiens (Human), UniProt Q15418); assay: ActivX kinase probe assay (human PBMC); type: binding; conditions: RSK1 domain1, read-out: percent inhibition
RSKL1 domain1 = RSKL1 domain1 (Homo sapiens (Human), UniProt Q96S38); assay: ActivX kinase probe assay (human PBMC); type: binding; conditions: RSKL1 domain1, read-out: percent inhibition
SMG1 = SMG1 (Homo sapiens (Human), UniProt Q96Q15); assay: ActivX kinase probe assay (human PBMC); type: binding; conditions: SMG1, read-out: percent inhibition
TBK1 = TBK1 (Homo sapiens (Human), UniProt Q9UHD2); assay: ActivX kinase probe assay (human PBMC); type: binding; conditions: TBK1, read-out: percent inhibition
TLK2 = TLK2 (Homo sapiens (Human), UniProt Q86UE8); assay: ActivX kinase probe assay (human PBMC); type: binding; conditions: TLK2, read-out: percent inhibition
ULK3 = ULK3 (Homo sapiens (Human), UniProt Q6PHR2); assay: ActivX kinase probe assay (human PBMC); type: binding; conditions: ULK3, read-out: percent inhibition
Wnk1, Wnk2, Wnk3 = assay: ActivX kinase probe assay (human PBMC); type: binding
ZAP70 = ZAP70 (Homo sapiens (Human), UniProt P43403); assay: ActivX kinase probe assay (human PBMC); type: binding; conditions: ZAP70, read-out: percent inhibition
[1] = tested on: ZC1/HGK, ZC2/TNIK, ZC3/MINK; assay: ActivX kinase probe assay (human PBMC); type: binding

Chain of RSK1 domain1 (Q15418 whole entry, the tested form may be a part): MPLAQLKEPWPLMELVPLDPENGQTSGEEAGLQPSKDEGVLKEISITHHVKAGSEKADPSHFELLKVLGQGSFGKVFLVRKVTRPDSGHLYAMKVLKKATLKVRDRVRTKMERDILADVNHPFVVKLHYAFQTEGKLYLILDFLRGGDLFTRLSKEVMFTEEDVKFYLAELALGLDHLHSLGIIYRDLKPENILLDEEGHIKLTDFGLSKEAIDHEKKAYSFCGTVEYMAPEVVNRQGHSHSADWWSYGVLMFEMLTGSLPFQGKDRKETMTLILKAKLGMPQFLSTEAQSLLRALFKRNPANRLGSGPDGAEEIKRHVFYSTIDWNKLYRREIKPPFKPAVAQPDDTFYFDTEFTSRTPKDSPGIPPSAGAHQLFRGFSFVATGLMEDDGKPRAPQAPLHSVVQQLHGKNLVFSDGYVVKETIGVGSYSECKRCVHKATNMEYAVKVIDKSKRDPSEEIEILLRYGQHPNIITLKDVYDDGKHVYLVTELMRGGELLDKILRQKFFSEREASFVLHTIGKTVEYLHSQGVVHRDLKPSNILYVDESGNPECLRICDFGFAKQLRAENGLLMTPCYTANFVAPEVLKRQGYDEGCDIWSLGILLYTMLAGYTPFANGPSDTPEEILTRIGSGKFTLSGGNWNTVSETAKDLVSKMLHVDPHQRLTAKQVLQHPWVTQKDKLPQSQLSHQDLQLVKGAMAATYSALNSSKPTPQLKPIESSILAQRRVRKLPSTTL
Chain of PIK3C3 (Q8NEB9 whole entry): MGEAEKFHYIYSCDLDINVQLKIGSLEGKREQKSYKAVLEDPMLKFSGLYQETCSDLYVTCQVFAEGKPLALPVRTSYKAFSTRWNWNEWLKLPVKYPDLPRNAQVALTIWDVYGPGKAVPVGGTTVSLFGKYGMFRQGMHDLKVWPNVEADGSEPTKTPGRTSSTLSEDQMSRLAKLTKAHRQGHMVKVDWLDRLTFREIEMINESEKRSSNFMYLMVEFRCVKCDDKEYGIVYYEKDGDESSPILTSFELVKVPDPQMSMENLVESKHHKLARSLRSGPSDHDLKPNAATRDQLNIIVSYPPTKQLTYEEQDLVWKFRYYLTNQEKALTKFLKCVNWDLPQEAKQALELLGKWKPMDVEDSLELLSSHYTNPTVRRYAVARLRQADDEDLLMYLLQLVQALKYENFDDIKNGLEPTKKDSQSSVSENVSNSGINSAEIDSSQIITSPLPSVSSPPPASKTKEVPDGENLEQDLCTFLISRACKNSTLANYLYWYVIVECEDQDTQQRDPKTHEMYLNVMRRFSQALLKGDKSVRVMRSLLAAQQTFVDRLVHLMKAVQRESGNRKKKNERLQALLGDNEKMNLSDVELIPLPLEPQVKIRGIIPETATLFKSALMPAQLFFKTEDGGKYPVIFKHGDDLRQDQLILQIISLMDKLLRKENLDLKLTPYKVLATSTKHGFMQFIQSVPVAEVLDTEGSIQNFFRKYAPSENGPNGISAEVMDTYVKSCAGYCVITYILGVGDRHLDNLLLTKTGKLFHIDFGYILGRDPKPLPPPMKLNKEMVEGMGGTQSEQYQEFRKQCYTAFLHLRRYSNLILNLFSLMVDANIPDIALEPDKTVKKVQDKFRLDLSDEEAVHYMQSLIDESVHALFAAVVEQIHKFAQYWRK
Chain of ZAP70 (P43403 whole entry): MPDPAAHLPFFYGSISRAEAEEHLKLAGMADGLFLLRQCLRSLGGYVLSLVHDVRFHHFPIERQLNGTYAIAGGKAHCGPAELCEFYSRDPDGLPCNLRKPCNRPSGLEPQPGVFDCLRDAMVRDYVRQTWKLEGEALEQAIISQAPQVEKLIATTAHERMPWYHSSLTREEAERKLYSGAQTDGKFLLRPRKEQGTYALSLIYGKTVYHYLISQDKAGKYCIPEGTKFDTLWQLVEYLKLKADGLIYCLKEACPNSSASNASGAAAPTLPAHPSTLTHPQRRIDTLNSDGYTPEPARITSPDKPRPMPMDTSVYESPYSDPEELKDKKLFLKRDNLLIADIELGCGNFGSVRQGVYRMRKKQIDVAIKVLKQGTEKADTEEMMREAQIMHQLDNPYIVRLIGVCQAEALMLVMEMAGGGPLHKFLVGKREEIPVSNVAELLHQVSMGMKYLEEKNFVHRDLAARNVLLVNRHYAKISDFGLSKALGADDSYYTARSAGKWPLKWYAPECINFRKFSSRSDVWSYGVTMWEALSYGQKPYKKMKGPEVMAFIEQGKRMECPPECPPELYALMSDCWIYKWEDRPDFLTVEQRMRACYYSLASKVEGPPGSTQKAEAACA
Chain of GSK3A (P49840 whole entry): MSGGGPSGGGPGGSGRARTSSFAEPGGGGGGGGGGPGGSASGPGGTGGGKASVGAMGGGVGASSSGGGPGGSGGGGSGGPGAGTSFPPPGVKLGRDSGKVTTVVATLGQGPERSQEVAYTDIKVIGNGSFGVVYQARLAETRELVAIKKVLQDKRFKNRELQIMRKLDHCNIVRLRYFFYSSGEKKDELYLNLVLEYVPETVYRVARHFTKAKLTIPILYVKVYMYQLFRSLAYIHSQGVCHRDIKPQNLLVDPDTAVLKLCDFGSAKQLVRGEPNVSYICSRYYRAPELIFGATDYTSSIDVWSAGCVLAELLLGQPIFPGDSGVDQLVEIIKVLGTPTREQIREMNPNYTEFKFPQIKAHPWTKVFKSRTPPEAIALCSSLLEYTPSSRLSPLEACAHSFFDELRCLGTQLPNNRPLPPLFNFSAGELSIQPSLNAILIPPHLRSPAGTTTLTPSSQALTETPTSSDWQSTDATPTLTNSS
Chain of PKR (P19525 whole entry): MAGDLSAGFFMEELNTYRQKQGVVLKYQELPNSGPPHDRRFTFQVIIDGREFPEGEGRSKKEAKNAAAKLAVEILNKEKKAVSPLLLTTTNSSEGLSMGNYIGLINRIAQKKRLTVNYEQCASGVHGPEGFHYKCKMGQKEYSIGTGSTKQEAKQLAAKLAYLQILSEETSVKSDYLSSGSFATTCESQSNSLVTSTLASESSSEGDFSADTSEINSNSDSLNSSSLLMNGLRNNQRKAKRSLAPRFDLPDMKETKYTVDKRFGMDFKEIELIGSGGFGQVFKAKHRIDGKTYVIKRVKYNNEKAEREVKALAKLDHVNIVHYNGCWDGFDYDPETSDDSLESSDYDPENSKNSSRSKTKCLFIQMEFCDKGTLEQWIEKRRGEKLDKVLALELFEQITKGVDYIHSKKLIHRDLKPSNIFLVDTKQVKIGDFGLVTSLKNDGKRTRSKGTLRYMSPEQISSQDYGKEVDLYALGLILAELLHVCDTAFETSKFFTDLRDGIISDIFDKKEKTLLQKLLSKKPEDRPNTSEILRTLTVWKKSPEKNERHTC
Chain of MARK3 (P27448 whole entry, the tested form may be a part): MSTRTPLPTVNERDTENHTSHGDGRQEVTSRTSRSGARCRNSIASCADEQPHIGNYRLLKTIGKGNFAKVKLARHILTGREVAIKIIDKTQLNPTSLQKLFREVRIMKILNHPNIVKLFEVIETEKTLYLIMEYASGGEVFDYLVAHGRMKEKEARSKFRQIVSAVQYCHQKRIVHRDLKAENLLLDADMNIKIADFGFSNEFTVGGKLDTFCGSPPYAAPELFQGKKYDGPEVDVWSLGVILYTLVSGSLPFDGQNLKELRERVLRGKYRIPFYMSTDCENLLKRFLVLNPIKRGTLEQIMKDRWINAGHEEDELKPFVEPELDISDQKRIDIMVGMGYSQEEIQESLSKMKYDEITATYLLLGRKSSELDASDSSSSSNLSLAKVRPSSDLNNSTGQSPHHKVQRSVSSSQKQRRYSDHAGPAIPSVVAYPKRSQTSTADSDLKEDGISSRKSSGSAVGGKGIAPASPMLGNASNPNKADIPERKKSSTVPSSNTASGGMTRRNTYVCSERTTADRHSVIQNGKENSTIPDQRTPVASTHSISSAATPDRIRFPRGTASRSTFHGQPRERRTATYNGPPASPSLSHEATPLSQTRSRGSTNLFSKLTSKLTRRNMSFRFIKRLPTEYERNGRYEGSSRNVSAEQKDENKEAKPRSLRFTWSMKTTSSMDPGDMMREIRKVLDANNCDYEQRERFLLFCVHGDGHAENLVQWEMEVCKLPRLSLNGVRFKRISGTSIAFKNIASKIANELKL
Chain of TBK1 (Q9UHD2 whole entry): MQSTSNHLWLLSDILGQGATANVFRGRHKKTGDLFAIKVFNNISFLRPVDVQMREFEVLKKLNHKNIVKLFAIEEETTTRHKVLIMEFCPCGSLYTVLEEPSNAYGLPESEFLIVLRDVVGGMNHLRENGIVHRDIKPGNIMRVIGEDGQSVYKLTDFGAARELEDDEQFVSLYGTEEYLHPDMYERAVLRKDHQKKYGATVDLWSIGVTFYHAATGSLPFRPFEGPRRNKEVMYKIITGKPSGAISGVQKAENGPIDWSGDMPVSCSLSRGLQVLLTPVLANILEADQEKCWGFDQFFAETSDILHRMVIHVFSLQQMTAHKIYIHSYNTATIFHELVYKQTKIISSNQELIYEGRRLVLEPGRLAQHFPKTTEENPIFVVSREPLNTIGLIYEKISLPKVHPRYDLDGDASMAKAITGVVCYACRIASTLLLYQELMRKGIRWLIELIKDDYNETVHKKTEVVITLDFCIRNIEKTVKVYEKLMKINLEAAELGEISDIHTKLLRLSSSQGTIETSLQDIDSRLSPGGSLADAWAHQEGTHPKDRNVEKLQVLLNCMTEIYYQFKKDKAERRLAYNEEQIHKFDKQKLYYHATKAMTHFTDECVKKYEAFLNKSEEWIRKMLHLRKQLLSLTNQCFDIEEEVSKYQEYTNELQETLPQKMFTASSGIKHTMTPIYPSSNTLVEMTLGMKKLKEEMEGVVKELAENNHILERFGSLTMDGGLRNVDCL
Chain of CDK5 (Q00535 whole entry): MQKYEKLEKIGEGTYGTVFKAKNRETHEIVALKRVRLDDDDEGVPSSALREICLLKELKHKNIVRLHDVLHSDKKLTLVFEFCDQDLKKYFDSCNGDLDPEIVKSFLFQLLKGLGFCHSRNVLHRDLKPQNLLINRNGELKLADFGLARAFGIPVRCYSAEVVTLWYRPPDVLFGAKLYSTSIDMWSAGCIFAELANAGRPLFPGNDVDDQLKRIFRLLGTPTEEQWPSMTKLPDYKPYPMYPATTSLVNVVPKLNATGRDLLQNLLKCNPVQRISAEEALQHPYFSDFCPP

SMILES: Cn1cc(-c2c[nH]c3ncnc(N4CCOCC4)c23)cc1C#N [Example 217, 1-methyl-4-[4-(morpholin-4-yl)-7H-pyrrolo[2,3-d]pyrimidin-5-yl]-1H-pyrrole-2-carbonitrile]
- IC50 (mutant G2019S LRRK2): 13 nM
- inhibition at 0.1 µM (AKT1; 0.1 μM): 5.5%
- inhibition at 1 µM (AKT1; 1 μM): -3.6%
- inhibition at 0.1 µM (BTK; 0.1 μM): 24.3%
- inhibition at 1 µM (BTK; 1 μM): 8.5%
- inhibition at 0.1 µM (CaMK1d; 0.1 μM): 11.7%
- inhibition at 1 µM (CaMK1d; 1 μM): 3.1%
- inhibition at 0.1 µM (CDK5; 0.1 μM): 0.5%
- inhibition at 1 µM (CDK5; 1 μM): 7.9%
- inhibition at 0.1 µM (eEF2K; 0.1 μM): -12.1%
- inhibition at 1 µM (eEF2K; 1 μM): 2.2%
- inhibition at 0.1 µM (FAK; 0.1 μM): 8.1%
- inhibition at 1 µM (FAK; 1 μM): 17.4%
- inhibition at 0.1 µM (FRAP; 0.1 μM): 0.7%
- inhibition at 1 µM (FRAP; 1 μM): 0.9%
- inhibition at 0.1 µM (GSK3A; 0.1 μM): 0.6%
- inhibition at 1 µM (GSK3A; 1 μM): 8.9%
- inhibition at 0.1 µM (IKKb; 0.1 μM): 7.1%
- inhibition at 1 µM (IKKb; 1 μM): 6.5%
- inhibition at 0.1 µM (JAK2 domain2; 0.1 μM): 4.8%
- inhibition at 1 µM (JAK2 domain2; 1 μM): -6.4%
- inhibition at 0.1 µM (LATS2; 0.1 μM): 5.8%
- inhibition at 1 µM (LATS2; 1 μM): -23.7%
- inhibition at 0.1 µM (LOK; 0.1 μM): -6.4%
- inhibition at 1 µM (LOK; 1 μM): 56.1%
- inhibition at 0.1 µM (LYN; 0.1 μM): 8.3%
- inhibition at 1 µM (LYN; 1 μM): -19.2%
- inhibition at 0.1 µM (MARK3; 0.1 μM): 16.2%
- inhibition at 1 µM (MARK3; 1 μM): 18.4%
- inhibition at 0.1 µM (MSK1 domain1; 0.1 μM): -12.1%
- inhibition at 1 µM (MSK1 domain1; 1 μM): -2.2%
- percent inhibition (MST4, YSK1; 0.1 μM): 5.3%
- percent inhibition (MST4, YSK1; 1 μM): 9.9%
- inhibition at 0.1 µM (NDR2; 0.1 μM): 28.9%
- inhibition at 1 µM (NDR2; 1 μM): -6%
- inhibition at 0.1 µM (p38a; 0.1 μM): -1.1%
- inhibition at 1 µM (p38a; 1 μM): -4.6%
- percent inhibition (p38d, p38g; 0.1 μM): −0.4%
- percent inhibition (p38d, p38g; 1 μM): 1.5%
- percent inhibition (PCTAIRE2, PCTAIRE3; 0.1 μM): −2.6%
- percent inhibition (PCTAIRE2, PCTAIRE3; 1 μM): 15.1%
- inhibition at 0.1 µM (PI4KB; 0.1 μM): 9.9%
- inhibition at 1 µM (PI4KB; 1 μM): -0.5%
- inhibition at 0.1 µM (PIK3C3; 0.1 μM): 19.9%
- inhibition at 1 µM (PIK3C3; 1 μM): 10.2%
- inhibition at 0.1 µM (PIP4K2A; 0.1 μM): 7.8%
- inhibition at 1 µM (PIP4K2A; 1 μM): 8.2%
- inhibition at 0.1 µM (PKR; 0.1 μM): -7.7%
- inhibition at 1 µM (PKR; 1 μM): 1.8%
- inhibition at 0.1 µM (RIPK3; 0.1 μM): -7.3%
- inhibition at 1 µM (RIPK3; 1 μM): -9.1%
- inhibition at 0.1 µM (RSK1 domain1; 0.1 μM): 27.6%
- inhibition at 1 µM (RSK1 domain1; 1 μM): 45.6%
- inhibition at 0.1 µM (RSKL1 domain1; 0.1 μM): -15.9%
- inhibition at 1 µM (RSKL1 domain1; 1 μM): -30.6%
- inhibition at 0.1 µM (SMG1; 0.1 μM): 1.5%
- inhibition at 1 µM (SMG1; 1 μM): -6.1%
- inhibition at 0.1 µM (TBK1; 0.1 μM): 1.9%
- inhibition at 1 µM (TBK1; 1 μM): 0.1%
- inhibition at 0.1 µM (TLK2; 0.1 μM): 11.1%
- inhibition at 1 µM (TLK2; 1 μM): 16%
- inhibition at 0.1 µM (ULK3; 0.1 μM): -8.6%
- inhibition at 1 µM (ULK3; 1 μM): 17.4%
- percent inhibition (Wnk1, Wnk2, Wnk3; 0.1 μM): −6.3%
- percent inhibition (Wnk1, Wnk2, Wnk3; 1 μM): −21.1%
- inhibition at 0.1 µM (ZAP70; 0.1 μM): -25%
- inhibition at 1 µM (ZAP70; 1 μM): -6%
- percent inhibition ([1]; 0.1 μM): −1.2%
- percent inhibition ([1]; 1 μM): 7.7%

Reference: patent US9156845B2, “4-(substituted amino)-7H-pyrrolo[2,3-d] pyrimidines as LRRK2 inhibitors” (Pfizer Inc., priority 2012, dated 2015)
